What was measured:
KLK7 = KLK7 (Homo sapiens, UniProt P49862); assay: Selectivity screening, KLK7; conditions: read-out: percentage of inhibition KLK7
Protocol: (§1) All enzyme stocks were stored at −20 °C and purchased from R&D Systems as proenzymes (KLK6, KLK8, KLK13) or as mature and active forms (KLK5). Activation of KLK6, KLK8, and KLK13 is performed in optimized buffers. The activation reaction is initiated by Lysyl‐Endopeptidase at 2.5 mU mL^−1 (Wako Bioproducts). The activation reaction is stopped by diluting the enzyme to 0.5 μg mL^−1 in assay buffer (50 mM Tris, 1 M Citrate, 0.05% w/v Brij‐35, pH 8) to obtain an active enzyme stock. KLK1 was purchased from R & D Systems as pro‐KLK1. Activation of KLK1 is performed in 50 mM Tris‐HCl, 10 mM CaCl2, 150 mM NaCl, 0.05% Brij‐35, pH 7.5. The activation reaction is initiated by bacterial thermolysin at 0.4 μg mL^−1 (Sigma‐Aldrich) and stopped by addition of 100 mM EDTA (Sigma‐Aldrich) to obtain an active KLK1 stock at the same concentration of 100 μg mL^−1. The activation reactions for KLK7 are initiated bacterial thermolysin at 0.4 μg mL^−1 (Sigma‐Aldrich) and stopped by addition of 100 mM EDTA (Sigma‐Aldrich) to obtain active stocks. All enzyme stocks were stored at −20 °C. H‐PFR‐AMC (KLK1), Boc‐VPR‐AMC (KLK5, KLK8, KLK13), Boc‐QAR‐AMC (KLK6, Plasmin), substrates were purchased from Bachem. MeO‐Suc‐RPY‐AMC (KLK7) substrate was purchased from AAT Bioquest. Plasmin (Sigma‐Aldrich) was purchased in mature and active form.
(§2) Compounds were screened on KLKs using a BMG Fluostar microplate reader (black 96‐well microplates). […]
(§3) The proteases are first preincubated for 15 min with each compound (50 and 100 μM) or with DMSO (<2%, negative control) in a total volume of 85 μL of 50 mM Tris buffer, 1 M citrate, 0.05% Brij‐35, pH 7, 37 °C. […] The release of the AMC fluorescent group is detected using the following wavelengths: λex = 360 nm and λem = 460 nm. The percent inhibition is calculated from Equation (1) where V 0 is the initial rate of the DMSO control, the initial rate in the presence of the inhibitor V i. […]

KLK8 = target: T1, KLK8 (Homo sapiens, UniProt O60259); assay: KLK8 fluorogenic enzyme inhibition assay (Boc-VPR-AMC); conditions: for Ki′ KLK8 / Type of inhibition KLK8: Dixon plot, without Fe3+; for Ki′ KLK8: 100 μM substrate; for inhibition at 50 µM: read-out: percentage of inhibition KLK8
T1 sequence (O60259 33-260): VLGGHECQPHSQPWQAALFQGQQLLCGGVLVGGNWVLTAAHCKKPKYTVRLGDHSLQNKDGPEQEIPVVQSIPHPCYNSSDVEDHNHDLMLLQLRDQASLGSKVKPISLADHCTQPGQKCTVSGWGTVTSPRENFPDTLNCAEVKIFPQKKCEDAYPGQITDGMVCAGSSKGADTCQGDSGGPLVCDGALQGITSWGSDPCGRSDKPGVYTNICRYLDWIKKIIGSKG
Protocol: (§4) All enzyme stocks were stored at −20 °C and purchased from R&D Systems as proenzymes (KLK6, KLK8, KLK13) or as mature and active forms (KLK5). Activation of KLK6, KLK8, and KLK13 is performed in optimized buffers. The activation reaction is initiated by Lysyl‐Endopeptidase at 2.5 mU mL^−1 (Wako Bioproducts). The activation reaction is stopped by diluting the enzyme to 0.5 μg mL^−1 in assay buffer (50 mM Tris, 1 M Citrate, 0.05% w/v Brij‐35, pH 8) to obtain an active enzyme stock. KLK1 was purchased from R & D Systems as pro‐KLK1. Activation of KLK1 is performed in 50 mM Tris‐HCl, 10 mM CaCl2, 150 mM NaCl, 0.05% Brij‐35, pH 7.5. The activation reaction is initiated by bacterial thermolysin at 0.4 μg mL^−1 (Sigma‐Aldrich) and stopped by addition of 100 mM EDTA (Sigma‐Aldrich) to obtain an active KLK1 stock at the same concentration of 100 μg mL^−1. […] All enzyme stocks were stored at −20 °C. H‐PFR‐AMC (KLK1), Boc‐VPR‐AMC (KLK5, KLK8, KLK13), Boc‐QAR‐AMC (KLK6, Plasmin), substrates were purchased from Bachem. […] Plasmin (Sigma‐Aldrich) was purchased in mature and active form.
(§5) Compounds were screened on KLKs using a BMG Fluostar microplate reader (black 96‐well microplates). Hit compounds were screened on the selected group of enzymes using optimized concentrations and buffers (KLK1 0.8 nM, KLK4 10 nM, KLK5 0.2 nM; KLK6 1.9 nM; KLK7 6 nM; KLK8 0.2 nM; KLK11 5.2 nM, KLK13 0.47 nM, KLK14 2.5 nM, plasmin 3.3 nM, thrombin 0.1 nM, tissue‐plasminogen activator (tPA) 0.1 nM, matriptase 1 nM, cathepsin L 2 nM) either in absence or prior preincubation in the presence of 100 μM of Fe^3+.
(§6) The proteases are first preincubated for 15 min with each compound (50 and 100 μM) or with DMSO (<2%, negative control) in a total volume of 85 μL of 50 mM Tris buffer, 1 M citrate, 0.05% Brij‐35, pH 7, 37 °C. The reaction is triggered by the appropriate substrate at the optimized concentration in 15 μL of 50 mM Tris buffer, 1 M citrate, 0.05% Brij‐35, pH 8 (H‐PFR‐AMC 100 μM; Boc‐VPR‐AMC 100 μM; Boc‐QAR‐AMC 100 μM; Meo‐Suc‐RPY‐AMC 150 μM, Z‐LR‐AMC 100 μM, Z‐GGR‐AMC 100 μM) and followed for 30 min at 37 °C. […] The release of the AMC fluorescent group is detected using the following wavelengths: λex = 360 nm and λem = 460 nm. The percent inhibition is calculated from Equation (1) where V 0 is the initial rate of the DMSO control, the initial rate in the presence of the inhibitor V i. (1) %inhibition=(1−(vi/v0))×100
(§7) The equation is entered in the Kaleidagraph 4.5 software for curve fitting f([I]) = % Inhibition, where [I] is the inhibitor concentration.
(§8) The mechanism of inhibition was determined by varying substrate and inhibitor concentrations, the type of inhibition and inhibition parameter (Ki or Ki′) are determined by Dixon's plots.

KLK14 = target: T2, KLK14 (Homo sapiens, UniProt Q9P0G3); assay: Selectivity screening, KLK14; format: biochemical; conditions: 50 μM compound, without Fe3+; read-out: percentage of inhibition KLK14
T2 construct: purchased R&D Systems
T2 sequence (Q9P0G3 25-251): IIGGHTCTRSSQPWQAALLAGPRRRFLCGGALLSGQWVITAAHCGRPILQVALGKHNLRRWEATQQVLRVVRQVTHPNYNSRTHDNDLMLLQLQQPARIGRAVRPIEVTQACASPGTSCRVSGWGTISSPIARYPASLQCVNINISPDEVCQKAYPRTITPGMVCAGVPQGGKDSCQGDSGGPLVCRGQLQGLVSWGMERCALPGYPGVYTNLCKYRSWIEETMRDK

KLK4 = target: T3, KLK4 (Homo sapiens, UniProt Q9Y5K2); assay: Selectivity screening, KLK4; format: biochemical; conditions: 50 μM compound, without Fe3+; read-out: percentage of inhibition KLK4
T3 construct: purchased R&D Systems

KLK5 = target: T4, KLK5 (Homo sapiens, UniProt Q9Y337); assay: Selectivity screening, KLK5; conditions: read-out: percentage of inhibition KLK5
T4 sequence (Q9Y337 67-293 limits assumed): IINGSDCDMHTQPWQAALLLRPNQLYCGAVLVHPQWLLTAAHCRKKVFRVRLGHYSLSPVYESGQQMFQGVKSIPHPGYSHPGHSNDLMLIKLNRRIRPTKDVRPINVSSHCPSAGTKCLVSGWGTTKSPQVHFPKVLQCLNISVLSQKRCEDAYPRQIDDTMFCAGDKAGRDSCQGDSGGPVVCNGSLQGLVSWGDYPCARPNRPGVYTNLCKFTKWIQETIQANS
Protocol: as §1, §5, §6

[1] = Calcein transchelation (calcein release) assay; format: physicochemical; conditions: calcein 100 nM, 4 h at room temperature; estimation, assay not fully quantitative; read-out: Apparent affinity (pseudo‐affinity constant Kd for Fe3+)
[2] = CCK8 cell viability assay, SH-SY5Y; format: cell-based; conditions: human, SH-SY5Y neuroblastoma cells, 25 and 50 μM, in absence or presence of iron (100 µM FAC), read-out: percentage of cell viability
Protocol: (§9) Human neuroblastoma cell line (SH-SY5Y) was purchased at American Type Culture Collection
(§10) Both cell lines were cultured in Dulbecco’s Modified Eagle Medium (DMEM)
(§11) containing 10% heat inactivated fetal bovine serum (FBS), 1% Penicillin/Streptomycin, 10 mM
(§12) Sodium Pyruvate, 2 mM L-Glutamine and 4,5 g/L D-glucose at 37°C, in a 5% humidified
(§13) incubator. Cells were cultivated until 80% confluence in flasks then were plated in 96-well
(§14) plates. For this experiment, SH-SY5Y were used at 10th passage and HMC3 at 13th. SH-SY5Y
(§15) cells were seeded at a density of 3x10^4 cells/well and HMC3 at a density of 10^4 cells/well. After
(§16) seeding, cells were left in complete medium overnight to adhere to the plates. After that, cells
(§17) were treated using inhibitors solubilized in DMSO at stock concentrations of 2,5 mM or 5 mM
(§18) with or without 10 mM iron. Iron solution was prepared by using FAC (Ferric Ammonium
(§19) Citrate, Sigma®) at stock concentration of 25 mM. After 24h of treatment, cell viability was
(§20) assessed with the CCK8 (Cell-Counting Kit 8) from TargetMol. After treatments, 10 µL of CCK8
(§21) reagent was diluted in 90 µL of complete medium and added to each well. After 3 hours at
(§22) 37°C, cell viability was assessed by absorbance measurement at 460 nm. Each viability assay
(§23) is the mean of two independent experiments performed in triplicates.
(§24) treated for 24h with the two selected concentrations of inhibitor (25 µM or 50 µM)
(§25) preincubated or not with 100 µM of FAC. The data are the mean of two independent
experiments performed in triplicates.

[3] = test system: KLK's of the CNS triad (KLK1‐KLK6‐KLK8); assay: Reversibility analysis by dilution after preincubation; format: biochemical, human; conditions: 100-fold dilution after 15 min preincubation
Protocol: Aliquots of reaction mixtures (1 μL) were added to 99 μL of buffer containing the fluorogenic substrate (experimental conditions identical to the routine protocol used for a given enzyme). The mechanism of inhibition was determined by varying substrate and inhibitor concentrations, the type of inhibition and inhibition parameter (Ki or Ki′) are determined by Dixon's plots.

[4] = CCK8 cell viability assay, HMC3; format: cell-based; conditions: human, HMC3 microglial cells; HMC3, 24h, 25 and 50 μM, in absence or presence of iron (100 µM FAC); read-out: percentage of cell viability
Protocol: as §9, §10, §11, §12, §13, §14, §15, §16, §17, §18, §19, §20, §21, §22, §23, §24, §25
experiments performed in triplicates.

KLK11 = target: T5, KLK11 (Homo sapiens, UniProt Q9UBX7); assay: Selectivity screening, KLK11; format: biochemical; conditions: 50 μM compound, without Fe3+; read-out: percentage of inhibition KLK11
T5 construct: purchased R&D Systems
T5 sequence (Q9UBX7 54-282): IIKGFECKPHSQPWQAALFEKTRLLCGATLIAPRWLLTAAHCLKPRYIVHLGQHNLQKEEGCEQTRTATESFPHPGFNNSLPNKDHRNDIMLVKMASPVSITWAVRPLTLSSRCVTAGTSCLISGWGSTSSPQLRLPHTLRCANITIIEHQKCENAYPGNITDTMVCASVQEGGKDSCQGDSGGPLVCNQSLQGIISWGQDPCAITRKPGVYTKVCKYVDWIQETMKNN

[5] = test system: targeted KLKs (KLK1, KLK6, KLK8); assay: Impact of preincubated compound (50 μM) and Fe3+ (100 μM) on targeted KLKs; format: biochemical, human; conditions: compound 50 μM preincubated with Fe3+ 100 μM
Protocol: Next, we evaluated the impact of preincubated mixtures of each compound at 50 μM and Fe^3+ at 100 μM to model an iron overload condition on targeted KLKs (Figure S5, Supporting Information).

KLK13 = target: T6, KLK13 (Homo sapiens, UniProt Q9UKR3); assay: Selectivity screening, KLK13; conditions: read-out: percentage of inhibition KLK13
T6 sequence (Q9UKR3 26-277 limits assumed): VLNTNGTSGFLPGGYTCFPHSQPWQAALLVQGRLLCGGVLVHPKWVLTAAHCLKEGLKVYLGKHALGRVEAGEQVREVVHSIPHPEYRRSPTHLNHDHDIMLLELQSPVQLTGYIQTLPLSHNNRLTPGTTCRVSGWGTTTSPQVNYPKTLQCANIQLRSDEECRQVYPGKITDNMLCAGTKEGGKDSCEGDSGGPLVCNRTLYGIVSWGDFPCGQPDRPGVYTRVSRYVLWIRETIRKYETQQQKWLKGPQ
Protocol: as §1, §5, §6

KLK1 = KLK1 (Homo sapiens, UniProt P06870); assay: KLK1 fluorogenic enzyme inhibition assay (H-PFR-AMC); conditions: for inhibition at 50 µM: read-out: percentage of inhibition KLK1; for IC50: IC50 KLK1, 15 min preincubation at 37 °C, NI = not a hit (not above 50% inhibition at 50 μM)
Protocol: as §4, §5, §6, §7, §8

Plasmin = Plasmin (Homo sapiens, UniProt P00747); assay: Selectivity screening, plasmin; conditions: read-out: percentage of inhibition Plasmin
Protocol: All enzyme stocks were stored at −20 °C and purchased from R&D Systems as proenzymes (KLK6, KLK8, KLK13) or as mature and active forms (KLK5). Activation of KLK6, KLK8, and KLK13 is performed in optimized buffers. The activation reaction is initiated by Lysyl‐Endopeptidase at 2.5 mU mL^−1 (Wako Bioproducts). The activation reaction is stopped by diluting the enzyme to 0.5 μg mL^−1 in assay buffer (50 mM Tris, 1 M Citrate, 0.05% w/v Brij‐35, pH 8) to obtain an active enzyme stock. KLK1 was purchased from R & D Systems as pro‐KLK1. Activation of KLK1 is performed in 50 mM Tris‐HCl, 10 mM CaCl2, 150 mM NaCl, 0.05% Brij‐35, pH 7.5. […]
as §2, §3

Cathepsin L = Cathepsin L (Homo sapiens, UniProt P07711); assay: Selectivity screening, cathepsin L; format: biochemical; conditions: 50 μM compound, without Fe3+; read-out: percentage of inhibition Cathepsin L
Thrombin = Thrombin (Homo sapiens, UniProt P00734); assay: Selectivity screening, thrombin; format: biochemical; conditions: 50 μM compound, without Fe3+; read-out: percentage of inhibition Thrombin
KLK6 = KLK6 (Homo sapiens, UniProt Q92876); assay: KLK6 fluorogenic enzyme inhibition assay (Boc-QAR-AMC)
Protocol: as §4, §5, §6, §7, §8

[6] = UV–vis spectroscopy of Fe3+ chelation and complex stability; format: physicochemical; conditions: activity buffer pH 7.4, 1:1 ratio, t = 0 to 240 min
Protocol: UV–vis analysis of DFX was first performed to monitor the chelation process and the stability of the Fe^3+ complex over time at a 1:1 ratio, typically representing the duration of inhibition assay (30 min to 4 h) (Figure S1, Supporting Information). In these conditions of pH (7.4) and ligand‐to‐iron ratio and according to Steinhauser et al. the main species in solution is assigned to [Fe(DFX)2]^3−.^[ [49] ^] Indeed, we aimed to explore not only the chelation properties but also the impact of the chelated species on enzyme inhibition.
2.c. Chelation properties, iron interactions, and selectivity profiles of selected compounds targeting KLK activity.
Figure S2: Stability of the chelated species as monitored by spectrophotometry. UV/VIS spectra of molecules alone using activity buffer at pH 7.4 (in orange at 500 µM) or in the presence of FeCl3 (ratio of 1:1) at different times (t = 0 in red, 30 min in black, 60 min in blue and 240 min in green). The purple trace corresponds to iron only at 500 µM All data are representative of 2 independent experiments performed in duplicate. […]

Chain of KLK7 (P49862 30-253): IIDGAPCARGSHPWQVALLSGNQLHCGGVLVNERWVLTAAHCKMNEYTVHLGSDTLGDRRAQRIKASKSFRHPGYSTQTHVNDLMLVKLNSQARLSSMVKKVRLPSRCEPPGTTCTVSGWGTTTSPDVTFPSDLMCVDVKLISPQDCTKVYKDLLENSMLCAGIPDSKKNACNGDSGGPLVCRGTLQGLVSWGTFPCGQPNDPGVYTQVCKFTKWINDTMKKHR
Chain of KLK1 (P06870 25-262): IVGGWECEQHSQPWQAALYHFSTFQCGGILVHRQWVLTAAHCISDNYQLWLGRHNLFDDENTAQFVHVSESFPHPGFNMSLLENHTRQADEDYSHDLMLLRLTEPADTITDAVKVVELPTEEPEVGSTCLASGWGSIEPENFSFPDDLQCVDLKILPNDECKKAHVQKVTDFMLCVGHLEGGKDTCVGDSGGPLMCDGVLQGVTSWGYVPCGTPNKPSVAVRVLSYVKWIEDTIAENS
T3 sequence (Q9Y5K2 31-254): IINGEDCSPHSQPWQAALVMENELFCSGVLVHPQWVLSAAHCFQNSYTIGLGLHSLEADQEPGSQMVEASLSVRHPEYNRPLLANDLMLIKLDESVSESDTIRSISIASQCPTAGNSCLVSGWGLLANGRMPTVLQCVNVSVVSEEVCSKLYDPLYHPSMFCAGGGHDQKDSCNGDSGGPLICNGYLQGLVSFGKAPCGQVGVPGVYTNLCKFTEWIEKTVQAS
Chain of Plasmin (P00747 581-810 limits assumed, species assumed): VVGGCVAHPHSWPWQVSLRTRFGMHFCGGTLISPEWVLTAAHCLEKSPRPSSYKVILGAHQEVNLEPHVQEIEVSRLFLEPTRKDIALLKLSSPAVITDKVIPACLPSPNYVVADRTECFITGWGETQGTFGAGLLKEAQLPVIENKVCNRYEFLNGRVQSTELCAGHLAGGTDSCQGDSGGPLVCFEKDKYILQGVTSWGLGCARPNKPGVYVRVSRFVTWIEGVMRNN
Chain of Plasmin (P00747 97-580 partner limits assumed, species assumed): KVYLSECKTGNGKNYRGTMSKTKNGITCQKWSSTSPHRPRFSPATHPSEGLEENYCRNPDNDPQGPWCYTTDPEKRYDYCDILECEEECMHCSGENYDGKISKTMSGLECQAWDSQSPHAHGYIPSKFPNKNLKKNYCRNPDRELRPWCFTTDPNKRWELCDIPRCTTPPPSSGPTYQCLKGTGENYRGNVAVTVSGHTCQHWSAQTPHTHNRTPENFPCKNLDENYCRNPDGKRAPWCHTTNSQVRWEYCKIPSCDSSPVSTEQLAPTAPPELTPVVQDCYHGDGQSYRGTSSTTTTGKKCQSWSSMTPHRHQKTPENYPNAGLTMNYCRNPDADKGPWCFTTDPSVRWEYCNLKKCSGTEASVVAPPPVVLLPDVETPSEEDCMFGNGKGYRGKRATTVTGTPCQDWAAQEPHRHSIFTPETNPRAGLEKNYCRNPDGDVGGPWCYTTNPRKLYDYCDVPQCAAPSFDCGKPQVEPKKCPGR
Chain of Cathepsin L (P07711 114-333, species assumed): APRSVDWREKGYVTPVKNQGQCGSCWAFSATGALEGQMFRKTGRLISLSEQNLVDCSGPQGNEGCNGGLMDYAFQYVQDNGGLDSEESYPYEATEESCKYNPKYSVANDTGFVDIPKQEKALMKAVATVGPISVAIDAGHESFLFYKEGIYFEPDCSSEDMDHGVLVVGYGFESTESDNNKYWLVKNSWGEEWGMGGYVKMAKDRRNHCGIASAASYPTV

SMILES | inhibition at 50 µM (KLK7) [%] | IC50 (KLK8) [µM] | Ki′ KLK8 (KLK8) [µM] | Type of inhibition KLK8 (KLK8) | inhibition at 50 µM (KLK8) [%] | inhibition at 50 µM (KLK14) [%] | inhibition at 50 µM (KLK4) [%] | inhibition at 50 µM (KLK5) [%] | Kd [1] [pM] | viability at 24 h [2] [%] | reversibility and time dependence of inhibition [3] | viability at 24 h [4] [%] | inhibition at 50 µM (KLK11) [%] | change of inhibitory activity in the presence of iron [5] | inhibition at 50 µM (KLK13) [%] | inhibition at 50 µM (KLK1) [%] | inhibition at 50 µM (Thrombin) [%] | IC50 (KLK1) [µM] | also measured
O=C(O)c1cccc(-n2nc(-c3ccccc3O)nc2-c2ccccc2O)c1 [3b] | 88.1 | 21.4 ± 0.4 | 18 | Uncompetitive | 62.1 | 95.1 | 83.8 | 98.1 | 63 ± 11 | > 80 | reversible and time‐independent inhibitors | > 80 | 90.9 |  |  |  |  |  | 
CC(C)(C)n1nc(-c2ccccc2O)nc1-c1ccccc1O [3d] |  | > 50 |  |  |  |  |  |  | 2150 ± 110 |  |  |  |  | do not show an increased inhibitory activity in the presence of iron |  |  |  |  | 
O=C(NC(Cc1c[nH]c2ccccc12)C(=O)O)c1ccc(-n2nc(-c3ccccc3O)nc2-c2ccccc2O)cc1 (stereo not drawn) [3lb] | 90.5 | 27.1 ± 1.1 |  |  | 50.2 | 98.8 | 99.7 | 98.2 |  | > 80 | reversible and time‐independent inhibitors | > 80 | 81.4 |  | 98.1 | 90.1 |  |  | Ki (KLK8): 12 µM; inhibition at 50 µM (Plasmin): 60.5%; inhibition at 50 µM (Cathepsin L): < 50%
O=C(O)C1CCCN1C(=O)c1ccc(-n2nc(-c3ccccc3O)nc2-c2ccccc2O)cc1 (stereo not drawn) [3mb] | 70.1 | 25.9 ± 0.7 | 25 | uncompetitive inhibition | 63.1 | 89.7 | 77.3 | 95.1 | 29 ± 17 | > 80 | reversible and time‐independent inhibitors | > 80 | 76.7 |  | 85.2 |  | 61.1 |  | 
Oc1ccc(-n2nc(-c3ccccc3O)nc2-c2ccccc2O)cc1 [3r] |  | > 50 |  |  |  | 62.2 | 84.3 | 85.5 | 62 ± 14 | > 80 | reversible and time‐independent inhibitors | > 80 |  |  | 98.3 | 79.1 | < 50 | 16.4 ± 1.3 | Ki (KLK1): 29 µM; Type of inhibition KLK1 (KLK1; Dixon plot, without Fe3+): Noncompetitive; inhibition at 50 µM (KLK6; read-out: percentage of inhibition KLK6): < 50%
CC(=O)Oc1ccccc1-c1nc(-c2ccccc2OC(C)=O)n(-c2ccc(C(=O)O)cc2)n1 [compound 22] |  | > 50 |  |  |  |  |  |  |  |  |  |  |  | do not show an increased inhibitory activity in the presence of iron |  |  |  | > 50 | UV–vis spectrum in the presence of FeCl3 (iron complex formation) [6]: no changes in the absorption spectra; IC50 (KLK6): > 50 µM
